Experimental data: paper PMC10817917, “Alkyl deoxyglycoside-polymyxin combinations against critical priority carbapenem-resistant gram-negative bacteria” (Scientific Reports, 2024)
Where two headings read alike, the source gives them in different places.

What was measured:
[1] = test system: E. coli NCTC 13846; experiment: Broth microdilution MIC/MBC, glycosides with or without polymyxins; type: cell-based, Escherichia coli; conditions: strain B
[2] = test system: K. pneumoniae CQ4921; experiment: as above; type: cell-based, Klebsiella pneumoniae; conditions: for MIC: Klebsiella pneumoniae, CQ4921
[3] = test system: E. cloacae CQ1941; experiment: as above; type: cell-based; conditions: for MIC: Enterobacter cloacae, CQ1941
[4] = test system: K. pneumoniae CQ1942; experiment: Broth microdilution MIC, glycosides with or without polymyxins; type: cell-based, Klebsiella pneumoniae; conditions: for MIC: Klebsiella pneumoniae, CQ1942
[5] = test system: Caco-2 cells; experiment: Resazurin cell viability assay (cytotoxicity); type: cell-based, human; conditions: Homo sapiens, Caco-2, 72 h, read-out: IC50
Protocol: (§1) Cytotoxicity of each compound alone or in combination with different polymyxin concentrations was evaluated through the resazurin cell viability assay[49] in human embryonic HEK-293T cells, as well as in human colon adenocarcinoma Caco-2 cells, after a 72-h long incubation period.
(§2) HEK-293T and Caco-2 cells were grown in RPMI 1640 medium (VWR) supplemented with 10% FBS (Biowest), 1% PenStrep (Sigma Aldrich), and 1% glutamine (Biowest) in a humidified incubator at 37 °C with a 5% CO2 atmosphere. Twice a week, the medium was aspirated, the cells were washed with DPBS (VWR), trypsinized with trypsin–EDTA solution (Biowest), and resuspended in fresh culture medium. The dose-dependent effects of each glycoside or glycoside-polymyxin combination were evaluated by the resazurin cell viability assay. Polymyxins (colistin sulfate and PMB sulfate for microbiological assays, European Pharmacopoeia Reference Standards, Sigma-Aldrich) were firstly dissolved in sterilized Mili-Q water to a stock concentration of 1 mg/mL, while glycosides were dissolved in DMSO to a stock concentration of 30 mM. 1.5 × 10^4 cells/well in 96.5 µL of medium were seeded onto 96-well plates and incubated at 37 °C for 24 h. For each compound, ten stock dilutions (with concentrations from 750 to 75 µM) were prepared in fresh medium immediately prior to incubation. 16 µL of each dilution were added to each well so that the final glycoside concentrations ranged from 100 to 10 µM in each row in a final assay volume of 120 µL. In addition, the previously prepared polymyxin stock solutions were diluted in fresh medium, affording new stocks of 8, 4, and 2 µg/mL. The same volume (7.5 µL/well) of PMB or colistin was then added to each row to achieve a final polymyxin concentration of 0.5, 0.25, and 0.125 µg/mL, respectively, regardless of the glycoside concentration. In assays without polymyxin, the same volume (7.5 µL/well) of medium was added. In all assays, the maximum DMSO concentration was 0.33%. After a 72-h incubation at 37 °C, 12 µL of a 0.15 mg/mL resazurin (Sigma-Aldrich) in sterilized Mili-Q water were added to each well, and the plates were left incubating for another 4 h at 37 °C. Resorufin was measured at 570/600 nm, and the percentage of resazurin reduction, corresponding to the cell viability percentage, was calculated according to Eq. (1)[60]. IC50 values were obtained by best fitting the dose-dependent inhibition curves using the Prism 9® software. The results were expressed as the mean ± SD of three independent replicates, with only data from analysis with R^2 > 0.90 being considered.1 %Cellviability=Abssample-Absmediumcontrol/Abscellcontrol-Absmediumcontrol×100

[6] = test system: HEK-293T cells; experiment: Resazurin cell viability assay (cytotoxicity); type: cell-based, human; conditions: Homo sapiens, HEK-293T, 72 h, read-out: IC50
Protocol: as §1, §2

[7] = alone, read-out: MICA (MIC of each compound individually)
[8] = combination with the lowest FICI
[9] = compound + colistin, lowest FICI
[10] = tested alone (no polymyxin adjuvant)

Q: With `CCCCCCCCCCCCO[C@H]1C[C@H](O)[C@@H](O)[C@H](C)O1` [Compound 3, dodecyl 2,6-dideoxy-α-L-arabino-hexopyranoside] as the compound, how does the “MIC of colistin in combination with the compound” value (“MIC … with the compound” for short) ([1]; Cpd conc. 0.4 μg/mL) read?
A: > 0.5 µg/mL

Q: What about the “MIC … with the compound” value ([1]; Cpd conc. 0.8 μg/mL) of the same compound?
A: > 0.5 µg/mL

Q: What about the “MIC … with the compound” value ([1]; Cpd conc. 3.125 μg/mL) of the same compound?
A: > 0.5 µg/mL

Q: What about the “MIC … with the compound” value ([1]; Cpd conc. 6.25 μg/mL) of the same compound?
A: > 0.5 µg/mL

Q: What about the “MIC … with the compound” value ([1]; Cpd conc. 12.5 μg/mL) of the same compound?
A: > 0.5 µg/mL

Q: And the “MIC … with the compound” value ([1]; Cpd conc. […])?
A: > 0.5 µg/mL

Q: What about the MIC ([1]; Escherichia coli, NCTC13846, agent alone, no adjuvant (polymyxin conc. 0), read-out: MIC) of the same compound?
A: > 100 µg/mL

Q: What about the “MIC of compound in combination with PMB” value ([1]; PMB 0.25 μg/mL) of the same compound?
A: > 100 µg/mL

Q: What about the “MIC of compound in combination with PMB” value ([1]; PMB 0.5 μg/mL) of the same compound?
A: > 100 µg/mL

Q: And the “MIC of compound in combination with colistin” value ([1]; colistin 0.06 μg/mL)?
A: > 100 µg/mL

Q: What about the “MIC of compound in combination with colistin” value ([1]; colistin 0.125 μg/mL) of the same compound?
A: > 100 µg/mL

Q: And the “MIC of compound in combination with colistin” value ([1]; colistin 0.25 μg/mL)?
A: > 100 µg/mL

Q: What about the “MIC of compound in combination with colistin” value ([1]; colistin 0.5 μg/mL) of the same compound?
A: > 100 µg/mL

Q: And the “MIC … with the compound” value ([2]; Cpd conc. 0.4 μg/mL, strain C)?
A: 0.5 µg/mL

Q: And the “MIC … with the compound” value ([2]; Cpd conc. 0.8 μg/mL, strain C)?
A: 0.5 µg/mL

Q: And the “MIC … with the compound” value ([2]; Cpd conc. 3.125 μg/mL, strain C)?
A: 0.25 µg/mL

Q: What about the “MIC … with the compound” value ([2]; Cpd conc. 6.25 μg/mL, strain C) of the same compound?
A: 0.25 µg/mL

Q: And the “MIC … with the compound” value ([2]; Cpd conc. 12.5 μg/mL, strain C)?
A: 0.25 µg/mL

Q: What about the “MIC … with the compound” value ([2]; Cpd conc. […], strain C) of the same compound?
A: 0.5 µg/mL

Q: What about the MIC ([2]; agent alone, no adjuvant (polymyxin conc. 0), strain C, read-out: MIC) of the same compound?
A: > 100 µg/mL

Q: And the MIC [2, 7]?
A: > 100 µg/mL

Q: And the “MIC of compound in combination with PMB” value ([2]; PMB 0.5 μg/mL, strain C)?
A: ≤ 0.1 µg/mL

Q: What about the “MIC of compound in combination with colistin” value ([2]; colistin 0.06 μg/mL, strain C) of the same compound?
A: > 100 µg/mL

Q: What about the “MIC of compound in combination with colistin” value ([2]; colistin 0.125 μg/mL, strain C) of the same compound?
A: > 100 µg/mL

Q: And the “MIC of compound in combination with colistin” value ([2]; colistin 0.25 μg/mL, strain C)?
A: 3.1 µg/mL

Q: What about the “MIC of compound in combination with colistin” value ([2]; colistin 0.5 μg/mL, strain C) of the same compound?
A: 0.2 µg/mL

Q: And the “MICA(A + B) (MIC of compound in combination with colistin)” value (“MICA(A + B)” below) [2, 8]?
A: 3.125 µg/mL

Q: And the “MICB(A + B) (MIC of colistin in combination with compound)” value (“MICB(A + B)” for short) [2, 8]?
A: 0.25 µg/mL

Q: And the “Interpretation (of FICI)” value ([2]; compound + colistin)?
A: Additive (from 0.5 to 1.0 were additive)

Q: And the FICI [2, 9]?
A: 0.52

Q: And the “MIC … with the compound” value ([3]; Cpd conc. 0.4 μg/mL, strain D)?
A: 0.5 µg/mL

Q: What about the “MIC … with the compound” value ([3]; Cpd conc. 0.8 μg/mL, strain D) of the same compound?
A: 0.5 µg/mL

Q: What about the “MIC … with the compound” value ([3]; Cpd conc. 3.125 μg/mL, strain D) of the same compound?
A: 0.25 µg/mL

Q: What about the “MIC … with the compound” value ([3]; Cpd conc. 6.25 μg/mL, strain D) of the same compound?
A: 0.25 µg/mL

Q: And the “MIC … with the compound” value ([3]; Cpd conc. 12.5 μg/mL, strain D)?
A: 0.25 µg/mL

Q: What about the “MIC … with the compound” value ([3]; Cpd conc. […], strain D) of the same compound?
A: 0.25 µg/mL

Q: What about the MIC ([3]; agent alone, no adjuvant (polymyxin conc. 0), strain D, read-out: MIC) of the same compound?
A: > 100 µg/mL

Q: And the MIC [3, 7]?
A: > 100 µg/mL

Q: What about the “MIC of compound in combination with PMB” value ([3]; PMB 0.5 μg/mL, strain D) of the same compound?
A: ≤ 0.1 µg/mL

Q: What about the “MIC of compound in combination with colistin” value ([3]; colistin 0.06 μg/mL, strain D) of the same compound?
A: > 100 µg/mL

Q: What about the “MIC of compound in combination with colistin” value ([3]; colistin 0.125 μg/mL, strain D) of the same compound?
A: > 100 µg/mL

Q: And the “MIC of compound in combination with colistin” value ([3]; colistin 0.25 μg/mL, strain D)?
A: 1.6 µg/mL

Q: And the “MIC of compound in combination with colistin” value ([3]; colistin 0.5 μg/mL, strain D)?
A: ≤ 0.1 µg/mL

Q: And the “MICA(A + B)” value [3, 8]?
A: 1.6 µg/mL

Q: What about the “MICB(A + B)” value [3, 8] of the same compound?
A: 0.25 µg/mL

Q: And the “Interpretation (of FICI)” value ([3]; compound + colistin)?
A: Additive (from 0.5 to 1.0 were additive)

Q: What about the FICI [3, 9] of the same compound?
A: 0.51

Q: And the “MIC … with the compound” value ([4]; Cpd conc. 0.4 μg/mL, strain E)?
A: 0.5 µg/mL

Q: And the “MIC … with the compound” value ([4]; Cpd conc. 0.8 μg/mL, strain E)?
A: 0.5 µg/mL

Q: What about the “MIC … with the compound” value ([4]; Cpd conc. 3.125 μg/mL, strain E) of the same compound?
A: 0.25 µg/mL

Q: What about the “MIC … with the compound” value ([4]; Cpd conc. 6.25 μg/mL, strain E) of the same compound?
A: 0.25 µg/mL

Q: And the “MIC … with the compound” value ([4]; Cpd conc. 12.5 μg/mL, strain E)?
A: 0.25 µg/mL

Q: What about the “MIC … with the compound” value ([4]; Cpd conc. […], strain E) of the same compound?
A: 0.5 µg/mL

Q: And the MIC ([4]; agent alone, no adjuvant (polymyxin conc. 0), strain E, read-out: MIC)?
A: > 100 µg/mL

Q: What about the MIC [4, 7] of the same compound?
A: > 100 µg/mL

Q: And the “MIC of compound in combination with PMB” value ([4]; PMB 0.25 μg/mL, strain E)?
A: > 100 µg/mL

Q: And the “MIC of compound in combination with PMB” value ([4]; PMB 0.5 μg/mL, strain E)?
A: ≤ 0.1 µg/mL

Q: And the “MIC of compound in combination with colistin” value ([4]; colistin 0.06 μg/mL, strain E)?
A: > 100 µg/mL

Q: What about the “MIC of compound in combination with colistin” value ([4]; colistin 0.125 μg/mL, strain E) of the same compound?
A: > 100 µg/mL

Q: And the “MIC of compound in combination with colistin” value ([4]; colistin 0.25 μg/mL, strain E)?
A: 3.1 µg/mL

Q: What about the “MIC of compound in combination with colistin” value ([4]; colistin 0.5 μg/mL, strain E) of the same compound?
A: ≤ 0.1 µg/mL

Q: What about the “MICA(A + B)” value [4, 8] of the same compound?
A: 3.125 µg/mL

Q: What about the “MICB(A + B)” value [4, 8] of the same compound?
A: 0.25 µg/mL

Q: What about the “Interpretation (of FICI)” value ([4]; compound + colistin) of the same compound?
A: Additive (from 0.5 to 1.0 were additive)

Q: What about the FICI [4, 9] of the same compound?
A: 0.52

Q: And the IC50 ([5]; Colistin 0.25 μg/mL)?
A: 69.2 ± 1.25 µM

Q: What about the IC50 ([5]; Colistin 0.5 μg/mL) of the same compound?
A: 68.2 ± 2.12 µM

Q: What about the IC50 ([5]; No polymyxin) of the same compound?
A: 68.9 ± 2.21 µM

Q: And the IC50 [5, 10]?
A: 21.8 µg/mL

Q: What about the IC50 ([6]; Colistin 0.5 μg/mL) of the same compound?
A: 79.3 ± 2 µM

Q: And the IC50 ([6]; No polymyxin)?
A: 72.5 ± 2.51 µM

Q: And the IC50 ([6]; PMB 0.5 μg/mL)?
A: 75.1 ± 2.7 µM

Q: And the IC50 [6, 10]?
A: 22.9 µg/mL
